PubChem BioAssay AID328 (DTP/NCI, 2004)
Several values for one entry are separate records, joined by “and”; a condition that tells them apart may be missing. Equal values may be shown once. Toxic doses and inconclusive results are not listed. The calls were made as follows: active = survival T/C of 150% or more; inactive = T/C below 125% in these data.

Test system: BDF1 mice, P388 leukemia ip, median survival T/C
Test: NCI In Vivo Anticancer Drug Screen. Data for tumor model P388 Leukemia (intraperitoneal) in B6D2F1 (BDF1) mice
Settings: endpoint: median survival time, higher = longer survival
Procedure, shortened: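 Vehicle-dosed animals serve as the reference; survival of compound-dosed, tumour-implanted mice is divided by it.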

[1] = dose: 100.0 mg/kg/injection, schedule: Q04DX003 (ip), vehicle: saline with Tween-80
[2] = dose: 200.0 mg/kg/injection, schedule: Q04DX003 (ip), vehicle: saline with Tween-80

Measured: T/C

Cc1ccc(C)c(CCO)c1
inactive: dose: 45.0 mg/kg/injection, schedule: Q01DX009 (ip), vehicle: other 105 % of control | dose: 50.0 mg/kg/injection, schedule: Q01DX009 (ip), vehicle: Klucel (hydroxypropylcellulose) (HPC) 108 % of control | dose: 65.0 mg/kg/injection, schedule: Q01DX009 (ip), vehicle: other 100 % of control | dose: 100.0 mg/kg/injection, schedule: Q01DX009 (ip), vehicle: Klucel (hydroxypropylcellulose) (HPC) 100 % of control | dose: 100.0 mg/kg/injection, schedule: Q01DX009 (ip), vehicle: other 100 % of control | [1] 109 % of control | dose: 150.0 mg/kg/injection, schedule: Q01DX009 (ip), vehicle: other 105 % of control | dose: 200.0 mg/kg/injection, schedule: Q01DX009 (ip), vehicle: Klucel (hydroxypropylcellulose) (HPC) 112 % of control | dose: 200.0 mg/kg/injection, schedule: Q01DX009 (ip), vehicle: other 104 % of control and 120 % of control | [2] 109 % of control

CCC1=C(c2ccc(OC)cc2)CCC(C(=O)O)C1C (stereo not given)
inactive: dose: 3.0 mg/kg/injection, schedule: Q01DX010 (sc), vehicle: steriod suspending solution 90 % of control | dose: 6.0 mg/kg/injection, schedule: Q01DX010 (sc), vehicle: steriod suspending solution 105 % of control | dose: 12.0 mg/kg/injection, schedule: Q01DX010 (sc), vehicle: steriod suspending solution 100 % of control | dose: 24.0 mg/kg/injection, schedule: Q01DX010 (sc), vehicle: steriod suspending solution 95 % of control | dose: 48.0 mg/kg/injection, schedule: Q01DX010 (sc), vehicle: steriod suspending solution 100 % of control | dose: 96.0 mg/kg/injection, schedule: Q01DX010 (sc), vehicle: steriod suspending solution 110 % of control | dose: 192.0 mg/kg/injection, schedule: Q01DX010 (sc), vehicle: steriod suspending solution 105 % of control

CC(=O)N1C(=O)NC(=O)C1(C)c1ccco1 (stereo not given)
inactive: dose: 25.0 mg/kg/injection, schedule: Q01DX009 (ip), vehicle: saline with Tween-80 122 % of control | dose: 50.0 mg/kg/injection, schedule: Q01DX009 (ip), vehicle: saline with Tween-80 112 % of control | dose: 100.0 mg/kg/injection, schedule: Q01DX009 (ip), vehicle: saline with Tween-80 103 % of control and 122 % of control | [1] 109 % of control and 113 % of control | dose: 200.0 mg/kg/injection, schedule: Q01DX009 (ip), vehicle: saline with Tween-80 92 % of control and 115 % of control | [2] 104 % of control and 122 % of control | dose: 400.0 mg/kg/injection, schedule: Q01DX009 (ip), vehicle: saline with Tween-80 87 % of control | dose: 400.0 mg/kg/injection, schedule: Q04DX003 (ip), vehicle: saline with Tween-80 90 % of control

CC(C)(C)C1CCC(C#N)(N=Nc2ccccc2)CC1 (stereo not given)
inactive: dose: 50.0 mg/kg/injection, schedule: Q01DX005 (ip), vehicle: saline with Tween-80 102 % of control | dose: 100.0 mg/kg/injection, schedule: Q01DX005 (ip), vehicle: saline with Tween-80 89 % of control

c1ccc(-c2nn(-c3ccccc3)[n+](-c3cccc4ccccc34)n2)cc1
inactive: dose: 2.0 mg/kg/injection, schedule: Q01DX009 (ip), vehicle: saline with Tween-80 103 % of control | dose: 4.0 mg/kg/injection, schedule: Q01DX009 (ip), vehicle: saline with Tween-80 112 % of control

CN(C)C(=S)SC(=S)N(C)C
inactive: dose: 25.0 mg/kg/injection, schedule: Q04DX003 (ip), vehicle: Klucel (hydroxypropylcellulose) (HPC) 100 % of control | dose: 50.0 mg/kg/injection, schedule: Q04DX003 (ip), vehicle: Klucel (hydroxypropylcellulose) (HPC) 95 % of control | dose: 100.0 mg/kg/injection, schedule: Q01DX001 (ip), vehicle: Klucel (hydroxypropylcellulose) (HPC) 100 % of control and 104 % of control | dose: 100.0 mg/kg/injection, schedule: Q04DX003 (ip), vehicle: Klucel (hydroxypropylcellulose) (HPC) 109 % of control | dose: 200.0 mg/kg/injection, schedule: Q01DX001 (ip), vehicle: Klucel (hydroxypropylcellulose) (HPC) 100 % of control | dose: 400.0 mg/kg/injection, schedule: Q01DX001 (ip), vehicle: Klucel (hydroxypropylcellulose) (HPC) 104 % of control and 108 % of control
